The record followed here is patent US20260242419A1, “A CYCLIC PEPTIDE FOR TRAPPING INTERLEUKIN-1 BETA” (Merck Sharp & Dohme LLC, priority 2023, published 2026).

The target in one assay is T1, IL-1β (Homo sapiens, UniProt P01584).
T1 construct: purchased BioLegend 579404
The assay is described as follows: IL-6 assay in MRC5 cells: inhibition of IL-1β induced IL-6 secretion (AlphaLISA). It counts as cell-based. The settings on record: inhibition of IL-1β induced IL-6 secretion in MRC5 cells; read-out: MRC5 IC50. Put shortly: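 Compound was pre-incubated 1 h at ambient temperature with recombinant human IL-1β at 2λ EC80 before adding human lung fibroblast MRC5 cells (3000/well) in EMEM with 0.025% BSA. After overnight culture at 37 °C, 5% CO2, secreted IL-6 in conditioned medium was measured by AlphaLISA; IC50 from 4-parameter logistic fits.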
On the technique in general: Alpha assays give light when donor and acceptor beads are brought close together.

Assay [1] concerns the target Recombinant human IL-1β (BioLegend 579404) (human, UniProt P01584 117-269). Description: cell-based or functional assay.

Starred links: 1 amine or outer side, 2 acyl side, 3 side chain; linkers in the order of their positions; H or OH if unused. Non-standard residues stand in square brackets, D forms with d. Residues, ends and D or L forms follow the SMILES beside them. 3Pal4Ph4CO2H = 4-[5-[(2S)-2-amino-2-carboxy-ethyl]-2-pyridyl]benzoic acid, O=C([C@H](Cc1ccc(-c2ccc(C(=O)[*:3])cc2)nc1)N[*:1])[*:2]; TyrEtNAc = (2S)-3-[4-(2-acetamidoethoxy)phenyl]-2-amino-propanoic acid, CC(=O)NCCOc1ccc(C[C@H](N[*:1])C(=O)[*:2])cc1; dProc3Bn = (2R,3S)-3-benzylpyrrolidine-2-carboxylic acid, O=C([C@H]1[C@@H](Cc2ccccc2)CCN1[*:1])[*:2]; 3PyridaAla = (2S)-2-amino-3-pyridazin-3-yl-propanoic acid, O=C([C@H](Cc1cccnn1)N[*:1])[*:2]; dPro(4R-(4-pyridylmethyl)) = O=C(O)[C@H]1C[C@@H](Cc2ccncc2)CN1; Trp(βS-Me,4-F) = C[C@@H](c1c[nH]c2cccc(F)c12)[C@H](N)C(=O)O; Bip(4'-CONH2) = NC(=O)c1ccc(-c2ccc(C[C@H](N)C(=O)O)cc2)cc1; Bip(4'-COOH) = N[C@@H](Cc1ccc(-c2ccc(C(=O)O)cc2)cc1)C(=O)O; Ala(1-bicyclo(1.1.1)pentyl) = N[C@@H](CC12CC(C1)C2)C(=O)O; dPro(4R-Bzl(4-F)) = O=C(O)[C@H]1C[C@@H](Cc2ccc(F)cc2)CN1; dPro(3S-(4-F-Bn)) = O=C(O)[C@@H]1NCC[C@@H]1Cc1ccc(F)cc1; X7 = Nc1cc(-c2ccc(C[C@H](N[*:1])C(=O)[*:2])cc2)ccn1; Ala(pyrimidin-5-yl) = N[C@@H](Cc1cncnc1)C(=O)O; Phe(4-CONH2) = NC(=O)c1ccc(C[C@H](N)C(=O)O)cc1; Phe(4-COOH) = N[C@@H](Cc1ccc(C(=O)O)cc1)C(=O)O; Ala(2-pyrazinyl) = N[C@@H](Cc1cnccn1)C(=O)O; Pro(cis-4-F) = O=C(O)[C@@H]1C[C@H](F)CN1; Ala(4-THP) = N[C@@H](CC1CCOCC1)C(=O)O; AEF = NCCOc1ccc(C[C@H](N)C(=O)O)cc1; d(αMeD) = C[C@@](N)(CC(=O)O)C(=O)O; 4Pal = N[C@@H](Cc1ccncc1)C(=O)O; aThr = C[C@H](O)[C@H](N)C(=O)O; d(αMeS) = C[C@@](N)(CO)C(=O)O; NMeDab = CN[C@@H](CCN)C(=O)O; Dab = NCC[C@H](N)C(=O)O; Dap = NC[C@H](N)C(=O)O; Aib = CC(C)(N)C(=O)O

T1 sequence (P01584 117-269): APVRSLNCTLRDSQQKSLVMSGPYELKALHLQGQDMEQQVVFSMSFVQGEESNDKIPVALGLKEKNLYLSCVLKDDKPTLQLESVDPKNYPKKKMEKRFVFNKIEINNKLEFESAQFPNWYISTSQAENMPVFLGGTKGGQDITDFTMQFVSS

What is called IC50 is the midpoint of a concentration-inhibition curve. On to `CC(=O)NCCOc1ccc(C[C@@H]2NC(=O)[C@H]3C[C@@H](Cc4ccncc4)CN3C(=O)CNC(=O)[C@H](CCN)NC(=O)[C@H](CCC(N)=O)NC(=O)[C@H](CC3CCOCC3)NC(=O)[C@@](C)(CC(=O)O)NC(=O)[C@H](Cc3c[nH]c4ccccc34)NC(=O)[C@H](CO)NC(=O)C(C)(C)NC(=O)[C@H]([C@@H](C)c3c[nH]c4cccc(F)c34)NC(=O)[C@@H]3C[C@H](F)CN3C(=O)CNC(=O)[C@H](Cc3ccc(C(N)=O)cc3)NC(=O)[C@H](Cc3ccncc3)NC2=O)cc1` [Example 377] (cyclo([AEF](Ac)[4Pal][Phe(4-CONH2)]G[Pro(cis-4-F)][Trp(βS-Me,4-F)][Aib]SW[d(αMeD)][Ala(4-THP)]Q[Dab]G[dPro(4R-(4-pyridylmethyl))])), for which the IC50 at IL-1β was 0.04 nM.

Take `CC(=O)NCCOc1ccc(C[C@@H]2NC(=O)[C@H]3C[C@@H](Cc4ccncc4)CN3C(=O)CNC(=O)[C@H](CCN)NC(=O)[C@H](CCC(N)=O)NC(=O)[C@H](CC3CCOCC3)NC(=O)[C@@](C)(CO)NC(=O)[C@H](Cc3c[nH]c4ccccc34)NC(=O)[C@H](CO)NC(=O)C(C)(C)NC(=O)[C@H]([C@@H](C)c3c[nH]c4cccc(F)c34)NC(=O)[C@@H]3C[C@H](F)CN3C(=O)CNC(=O)[C@H](Cc3ccc(C(N)=O)cc3)NC(=O)[C@H](Cc3ccncc3)NC2=O)cc1` [Example 378] (cyclo([AEF](Ac)[4Pal][Phe(4-CONH2)]G[Pro(cis-4-F)][Trp(βS-Me,4-F)][Aib]SW[d(αMeS)][Ala(4-THP)]Q[Dab]G[dPro(4R-(4-pyridylmethyl))])): the IC50 on IL-1β was determined as 0.043 nM.

For the molecule `C[C@@H](c1c[nH]c2cccc(F)c12)[C@@H]1NC(=O)[C@@H]2C[C@H](F)CN2C(=O)CNC(=O)[C@H](Cc2ccc(C(=O)O)cc2)NC(=O)[C@H](Cc2ccncc2)NC(=O)[C@H](Cc2ccc(-c3ccc(C(N)=O)cc3)cc2)NC(=O)[C@H]2[C@@H](Cc3ccc(F)cc3)CCN2C(=O)CNC(=O)[C@H](CCN)NC(=O)[C@H](CCC(N)=O)NC(=O)[C@H](Cc2cncnc2)NC(=O)[C@@](C)(CC(=O)O)NC(=O)[C@H](Cc2c[nH]c3ccccc23)NC(=O)[C@H](CO)NC(=O)C(C)(C)NC1=O` [Example 379] (cyclo([Bip(4'-CONH2)][4Pal][Phe(4-COOH)]G[Pro(cis-4-F)][Trp(βS-Me,4-F)][Aib]SW[d(αMeD)][Ala(pyrimidin-5-yl)]Q[Dab]G[dPro(3S-(4-F-Bn))])), the IC50 at IL-1β was found to be 0.016 nM.

Regarding `C[C@@H](c1c[nH]c2cccc(F)c12)[C@@H]1NC(=O)[C@@H]2C[C@H](F)CN2C(=O)CNC(=O)[C@H](Cc2ccc(C(N)=O)cc2)NC(=O)[C@H](Cc2ccncc2)NC(=O)[C@H](Cc2ccc(-c3ccc(C(N)=O)cc3)cc2)NC(=O)[C@H]2[C@@H](Cc3ccc(F)cc3)CCN2C(=O)CNC(=O)[C@H](CCN)NC(=O)[C@H](CCC(N)=O)NC(=O)[C@H](Cc2cncnc2)NC(=O)[C@@](C)(CC(=O)O)NC(=O)[C@H](Cc2c[nH]c3ccccc23)NC(=O)[C@H](CO)NC(=O)C(C)(C)NC1=O` [Example 380] (cyclo([Bip(4'-CONH2)][4Pal][Phe(4-CONH2)]G[Pro(cis-4-F)][Trp(βS-Me,4-F)][Aib]SW[d(αMeD)][Ala(pyrimidin-5-yl)]Q[Dab]G[dPro(3S-(4-F-Bn))])), at IL-1β, the IC50 is 0.018 nM.

With `CCO[C@@H](C)[C@@H]1NC(=O)C(C)(C)NC(=O)[C@H](Cc2c[nH]c3ccccc23)NC(=O)[C@H](CO)NC(=O)C(C)(C)NC(=O)[C@H]([C@@H](C)c2c[nH]c3cccc(F)c23)NC(=O)[C@@H]2C[C@H](F)CN2C(=O)CNC(=O)[C@H](Cc2ccc(C(N)=O)cc2)NC(=O)[C@H](Cc2ccncc2)NC(=O)[C@H](Cc2ccc(OCCNC(C)=O)cc2)NC(=O)[C@H]2C[C@@H](Cc3ccncc3)CN2C(=O)CNC(=O)[C@H](CCN)N(C)C(=O)[C@H](CCC(N)=O)NC1=O` [Example 381] (cyclo([4Pal][Phe(4-CONH2)]G[Pro(cis-4-F)][Trp(βS-Me,4-F)][Aib]SW[Aib][aThr](Et)Q[NMeDab]G[dPro(4R-(4-pyridylmethyl))][AEF](Ac))), the IC50 on IL-1β is 0.041 nM.

Turning to `CCO[C@H](C)[C@@H]1NC(=O)C(C)(C)NC(=O)[C@H](Cc2c[nH]c3ccccc23)NC(=O)[C@H](CO)NC(=O)C(C)(C)NC(=O)[C@H]([C@@H](C)c2c[nH]c3cccc(F)c23)NC(=O)[C@@H]2C[C@H](F)CN2C(=O)CNC(=O)[C@H](Cc2ccc(C(N)=O)cc2)NC(=O)[C@H](Cc2ccncc2)NC(=O)[C@H](Cc2ccc(OCCNC(C)=O)cc2)NC(=O)[C@H]2C[C@@H](Cc3ccncc3)CN2C(=O)CNC(=O)[C@H](CCN)N(C)C(=O)[C@H](CCC(N)=O)NC1=O` [Example 382] (cyclo([AEF](Ac)[4Pal][Phe(4-CONH2)]G[Pro(cis-4-F)][Trp(βS-Me,4-F)][Aib]SW[Aib]T(Et)Q[NMeDab]G[dPro(4R-(4-pyridylmethyl))])), on IL-1β, the IC50 was found to be 0.048 nM.

Regarding `C[C@@H](c1c[nH]c2cccc(F)c12)[C@@H]1NC(=O)[C@@H]2C[C@H](F)CN2C(=O)CNC(=O)[C@H](Cc2ccc(C(=O)O)cc2)NC(=O)[C@H](Cc2ccncc2)NC(=O)[C@H](Cc2ccc(-c3ccnc(N)c3)cc2)NC(=O)[C@H]2[C@@H](Cc3ccc(F)cc3)CCN2C(=O)CNC(=O)[C@H](CCN)NC(=O)[C@H](CCC(N)=O)NC(=O)[C@H](Cc2cncnc2)NC(=O)[C@@](C)(CC(=O)O)NC(=O)[C@H](Cc2c[nH]c3ccccc23)NC(=O)[C@H](CO)NC(=O)C(C)(C)NC1=O` [Example 385] (cyclo([X7][4Pal][Phe(4-COOH)]G[Pro(cis-4-F)][Trp(βS-Me,4-F)][Aib]SW[d(αMeD)][Ala(pyrimidin-5-yl)]Q[Dab]G[dPro(3S-(4-F-Bn))])), the IC50 at IL-1β came out at 0.023 nM.

B1: SEQ ID NO: 10 (peptide)
peptide: cyclo([TyrEtNAc][4Pal][Phe(4-COOH)]G[Pro(cis-4-F)][Trp(βS-Me,4-F)][Aib]EW[Aib][Ala(pyrimidin-5-yl)]Q[Dab]G[dPro(4R-Bzl(4-F))])
SMILES: CC(=O)NCCOc1ccc(C[C@@H]2NC(=O)[C@H]3C[C@@H](Cc4ccc(F)cc4)CN3C(=O)CNC(=O)[C@H](CCN)NC(=O)[C@H](CCC(N)=O)NC(=O)[C@H](Cc3cncnc3)NC(=O)C(C)(C)NC(=O)[C@H](Cc3c[nH]c4ccccc34)NC(=O)[C@H](CCC(=O)O)NC(=O)C(C)(C)NC(=O)[C@H]([C@@H](C)c3c[nH]c4cccc(F)c34)NC(=O)[C@@H]3C[C@H](F)CN3C(=O)CNC(=O)[C@H](Cc3ccc(C(=O)O)cc3)NC(=O)[C@H](Cc3ccncc3)NC2=O)cc1
In the case of B1, in assay [1], the “MRC5 IC50” value was found to be 0.027 nM.

B2: SEQ ID NO: 102 (peptide)
peptide: cyclo([Bip(4'-COOH)][4Pal][Phe(4-COOH)]G[Pro(cis-4-F)][Trp(βS-Me,4-F)][Aib]EW[Aib][3PyridaAla]Q[Dab]G[dPro(4R-Bzl(4-F))])
SMILES: C[C@@H](c1c[nH]c2cccc(F)c12)[C@@H]1NC(=O)[C@@H]2C[C@H](F)CN2C(=O)CNC(=O)[C@H](Cc2ccc(C(=O)O)cc2)NC(=O)[C@H](Cc2ccncc2)NC(=O)[C@H](Cc2ccc(-c3ccc(C(=O)O)cc3)cc2)NC(=O)[C@H]2C[C@@H](Cc3ccc(F)cc3)CN2C(=O)CNC(=O)[C@H](CCN)NC(=O)[C@H](CCC(N)=O)NC(=O)[C@H](Cc2cccnn2)NC(=O)C(C)(C)NC(=O)[C@H](Cc2c[nH]c3ccccc23)NC(=O)[C@H](CCC(=O)O)NC(=O)C(C)(C)NC1=O
With B2, in assay [1], the “MRC5 IC50” value came to 0.021 nM.

Consider cyclo([Bip(4'-COOH)][4Pal][Phe(4-COOH)]G[Pro(cis-4-F)][Trp(βS-Me,4-F)][Aib]EW[Aib][Ala(2-pyrazinyl)]Q[Dab]G[dPro(4R-Bzl(4-F))]) [SEQ ID NO: 101], for which the “MRC5 IC50” value in assay [1] was found to be 0.021 nM.

B3: SEQ ID NO: 100 (peptide)
peptide: cyclo([3Pal4Ph4CO2H][Ala(1-bicyclo(1.1.1)pentyl)][Phe(4-COOH)]G[Pro(cis-4-F)][Trp(βS-Me,4-F)][Aib]EW[Aib][Dap]Q[Dab]G[dPro(4R-Bzl(4-F))])
SMILES: C[C@@H](c1c[nH]c2cccc(F)c12)[C@@H]1NC(=O)[C@@H]2C[C@H](F)CN2C(=O)CNC(=O)[C@H](Cc2ccc(C(=O)O)cc2)NC(=O)[C@H](CC23CC(C2)C3)NC(=O)[C@H](Cc2ccc(-c3ccc(C(=O)O)cc3)nc2)NC(=O)[C@H]2C[C@@H](Cc3ccc(F)cc3)CN2C(=O)CNC(=O)[C@H](CCN)NC(=O)[C@H](CCC(N)=O)NC(=O)[C@H](CN)NC(=O)C(C)(C)NC(=O)[C@H](Cc2c[nH]c3ccccc23)NC(=O)[C@H](CCC(=O)O)NC(=O)C(C)(C)NC1=O
Turning to B3, the “MRC5 IC50” value in assay [1] is 0.074 nM.

B4: SEQ ID NO: 1 (peptide)
peptide: cyclo([Bip(4'-COOH)][4Pal][Phe(4-COOH)]G[Pro(cis-4-F)][Trp(βS-Me,4-F)][Aib]EW[Aib]FQSG[dProc3Bn])
SMILES: C[C@@H](c1c[nH]c2cccc(F)c12)[C@@H]1NC(=O)[C@@H]2C[C@H](F)CN2C(=O)CNC(=O)[C@H](Cc2ccc(C(=O)O)cc2)NC(=O)[C@H](Cc2ccncc2)NC(=O)[C@H](Cc2ccc(-c3ccc(C(=O)O)cc3)cc2)NC(=O)[C@H]2[C@@H](Cc3ccccc3)CCN2C(=O)CNC(=O)[C@H](CO)NC(=O)[C@H](CCC(N)=O)NC(=O)[C@H](Cc2ccccc2)NC(=O)C(C)(C)NC(=O)[C@H](Cc2c[nH]c3ccccc23)NC(=O)[C@H](CCC(=O)O)NC(=O)C(C)(C)NC1=O
On to B4, for which the “MRC5 IC50” value in assay [1] came to 0.093 nM.
